According to patent US20150252051A1, “RETINOIC ACID RECEPTOR-RELATED ORPHAN RECEPTOR MODULATORS AND USES THEREOF” (INNOV17 LLC, priority 2014, published 2015):

Key:
Assay type in all cases: cell-based
Conditions in all cases: 72 h; human CD4+ T cells under TH17-polarizing conditions, 3 days; supernatant ELISA
[1] = system: IL-21; experiment: Human TH17 cytokine inhibition as measured by ELISA (IL-21)
Method: (§1) Human TH17 Cytokine Inhibition as Measured by ELISA Peripheral blood mononuclear cells (PBMCs) were sourced from freshly prepared leukocyte enriched plasma (buffy coat) from healthy donors (New York Blood Center). PBMCs were isolated by density gradient centrifugation using Ficoll-Paque™ PLUS (GE Healthcare). Human CD4+ T cells were seeded into 96-well plates (5×10^4 cells/well) and activated with plate-bound anti-human (h)-CD3 antibody and soluble h-aCD28 (both at 1 ug/ml; eBioscience) and differentiated into TH17 cells with 20 ng/mL h-IL-6, 5 ng/mL h-TGF-β1, 10 ng/mL h-IL-23 (eBioscience) and 10 ng/mL IL-1β (Miltenyi Biotec) in serum-free TexMACS Medium (Miltenyi Biotec) supplemented with 1% Penicillin/Streptomycin (Lonza) for 3 days. CD4+ T cells propagated under TH17-polarizing conditions were cultured in the presence or absence of various concentrations of compounds with a final concentration of 0.1% DMSO. Supernatants were collected and stored at −20° C. until assayed for IL-17A, IL-17F and IL-21 levels by “Ready-Set-Go” ELISA kits (eBioscience) as per manufacturer's instructions. Endpoint absorbance was read at 450 nm using a microplate reader (Perkin Elmer).

[2] = system: IL-17A; experiment: Human TH17 cytokine inhibition as measured by ELISA (IL-17A)
Method: as §1

[3] = system: IL-17F; experiment: Human TH17 cytokine inhibition as measured by ELISA (IL-17F)
Method: as §1

Measured: IC50

CC(C)C(=O)N1C2CCC1C(Cn1ccc3cc(-c4cn[nH]c4)ccc31)C2 (stereo not drawn) [Example 15, 1-(2-((5-(1H-pyrazol-4-yl)-1H-indol-1-yl)methyl)-7-azabicyclo[2.2.1]heptan-7-yl)-2-methylpropan-1-one]
< 10 µM: all assays above

O=C(Cc1ccccc1)N1C2CCC1C(Cn1ccc3cc(-c4cn[nH]c4)ccc31)C2 (stereo not drawn) [Example 10, 1-(2-((5-(1H-pyrazol-4-yl)-1H-indol-1-yl)methyl)-7-azabicyclo[2.2.1]heptan-7-yl)-2-phenylethanone]
< 10 µM: all assays above

O=C(C1CCCCC1)N1C2CCC1C(Cn1ccc3cc(-c4cn[nH]c4)ccc31)C2 (stereo not drawn) [Example 12, (2-((5-(1H-pyrazol-4-yl)-1H-indol-1-yl)methyl)-7-azabicyclo[2.2.1]heptan-7-yl)(cyclohexyl)methanone]
< 10 µM: all assays above

O=C(c1ccccc1)N1C2CCC1C(CN1CCc3cc(-c4cn[nH]c4)ccc31)C2 (stereo not drawn) [Example 9, (2-((5-(1H-pyrazol-4-yl)-1H-indolin-1-yl)methyl)-7-azabicyclo[2.2.1]heptan-7-yl)(phenyl)methanone]
< 10 µM: all assays above

CC(C)CC(=O)N1C2CCC1C(Cn1ccc3cc(-c4cn[nH]c4)ccc31)C2 (stereo not drawn) [Example 14, 1-(2-((5-(1H-pyrazol-4-yl)-1H-indol-1-yl)methyl)-7-azabicyclo[2.2.1]heptan-7-yl)-3-methylbutan-1-one]
< 10 µM: all assays above

O=C(CC1CCCCC1)N1C2CCC1C(Cn1ccc3cc(-c4cn[nH]c4)ccc31)C2 (stereo not drawn) [Example 13]
< 10 µM: all assays above

O=C(CCc1ccccc1)N1C2CCC1C(Cn1ccc3cc(-c4cn[nH]c4)ccc31)C2 (stereo not drawn) [Example 11, 1-(2-((5-(1H-pyrazol-4-yl)-1H-indol-1-yl)methyl)-7-azabicyclo[2.2.1]heptan-7-yl)-3-phenylpropan-1-one]
< 10 µM: all assays above
